Laboratory results published in US8821862B2, “Soluble β-N-acetylglucosaminidase based antibiofilm compositions and uses thereof” (Kane Biotech Inc., priority 2002, dated 2014).

Columns and labels:
[1] = test system: biofilm-embedded S. epidermidis; test: In vitro biofilm killing assay after DispersinB pre-treatment; format: cell-based, Staphylococcus epidermidis; conditions: 37° C.
Procedure: An in vitro biofilm assay was performed to determine the effect of DispersinB™ pre-treatment on the susceptibility of S. epidermidis to SDS. S. epidermidis biofilm grown in tubes were pretreated with PBS or DispersinB™ (20 μg/ml) for 30 min, and then treated with SDS (0.2 mg/ml) for 5 min at 37° C. […] However, SDS caused a 1.5 log unit decrease in the number of CFUs in tubes pretreated with […] biofilm embedded cells more susceptible to SDS.
An in vitro biofilm assay was performed to determine the effect of DispersinB™ pre-treatment on the susceptibility of biofilm-embedded S. epidermidis to CHX. S. epidermidis biofilm grown in tubes were pretreated with PBS or DispersinB™ (20 μg/ml) for 30 min, and then treated with CHX (0.2 μg/ml) for 5 min at 37° C. […] However, CHX caused a 1.6 log decrease of CFU in tubes pretreated with DispersinB™. DispersinB™ pretreatment made biofilm-embedded cells more susceptible to CHX.
An in vitro biofilm assay was performed to determine the effect of DispersinB™ pre-treatment on the susceptibility of S. epidermidis to BKC. S. epidermidis biofilm grown in tubes were pretreated with PBS or DispersinB™ (20 μg/ml) for 30 min, and then treated with BKC (0.4 μg/ml) for 60 min at 37° C. […] However, BKC caused a 2.2 log decrease in CFU in tubes pretreated with DispersinB™. DispersinB™ pre-treatment made biofilm-embedded cells more susceptible to BKC.
An in vitro biofilm assay was performed to determine the effect of DispersinB™ pre-treatment on susceptibility of S. epidermidis to silver nanopowder (SNP). S. epidermidis biofilm grown in tubes were pretreated with PBS or DispersinB™ (20 μg/ml) for 30 min, and then treated with SNP (0.03125 μg/ml) for 60 min at 37° C. […] However, SNP caused a 1.5 log decrease in CFU in tubes pretreated with DispersinB™. DispersinB™ pre-treatment made biofilm embedded cells more susceptible to SNP treatment.

[2] = test system: biofilm embedded S. epidermidis; test: 12-well microplate biofilm assay with CFU counting; format: cell-based, Staphylococcus epidermidis
Procedure: In vitro microplate assays were performed to determine the effect of DispersinB and PyrM combination on the growth of biofilm-embedded S. epidermidis. Overnight growth of S. epidermidis in tryptic soy broth (TSB) was used as inoculum. Biofilm was developed in 12-well microplate in the absence and presence of each test compound (1 μg/ml DispersinB or 8 μg/ml PyrM) separately and together (DispersinB+PyrM). The plates were incubated at 37° C. for 24 h. Medium containing planktonic cells in each well was removed gently and rinsed with sterile water. A known volume of water was added to each well and sonicated for seconds. The contents of each well was transferred into a sterile tube, vortexed for a minute, followed by 10-fold serial dilution, and plated on agar plates using a spreader. After incubating the plates at 37° C. for 24 h, colony-forming units (CFU) were counted.

[3] = test system: biofilm embedded S. aureus; test: 12-well microplate biofilm assay with CFU counting; format: cell-based, Staphylococcus aureus; conditions: EGCG 100 ng/ml alone versus DispersinB alone
Procedure: An in vitro microplate assays were performed to determine the effects of a DispersinB™ and EGCG combination on the growth of biofilm embedded S. epidermidis and S. aureus. Overnight cultures of each bacterial strain grown in Tryptic Soy Broth (TSB) were used as inoculum. Biofilm was developed in TSB on a 12-well microplate in the absence and presence of each test compound (50 ng DispersinB™ or 100 ng/ml ECCG) separately and together (DispersinB™+EGCG). The plates were incubated at 37° C. for 24 hours. Medium containing planktonic cells in each well was removed gently and rinsed with sterile water. A known volume of water was added to each well and sonicated for 30 seconds. The contents of each well was transferred into a sterile tube, vortexed for a minute, followed by 10-fold serial dilution, and plated on agar plates using a spreader. After incubating the plates at 37° C. for 24 hours, colony forming units (CFU) were counted.

[4] = test system: A. actinomycetemcomitans strain CU1000 (wild-type) biofilms; test: Biofilm detachment assay (crystal violet); format: cell-based
Description: (§1) Bacterial strains, media, and growth conditions. A. actinomycetemcomitans strain CU1000 (serotype f) was isolated from a person with localized aggressive periodontitis (Fine et al., Microbiol. 1999, 145: 1335-1347). […] An isogenic PGA mutant strain HW1018 (CU1000 pgaC::IS903φKan) was isolated by randomly mutagenizing CU1000 with transposon IS903φKan and selecting mutants that produced white colonies on Congo red agar, as previously described (Kaplan et al., 2003; Kaplan et al., J. Bacteriol. 2004, 186: 8213-8220). Like other pgaC mutant strains, HW1018 was completely deficient in PGA production, but still formed tenacious biofilms on plastic surfaces (Kaplan et al., 2004). Bacteria were grown in trypticase soy broth supplemented with […] and 8 g/L glucose. Solid medium was supplemented with 15 g/L agar. All cultures were incubated statically at 37° C. in 10% CO2.
(§2) Biofilm Cultures. Biofilms were grown in 17 mm×100 mm culture tubes (untreated polystyrene; Falcon #352051) or 96-well microtiter plates (tissueculture-treated polystyrene, flat bottoms; Falcon #353072). Culture vessels were inoculated with a 1:10 dilution of inoculum in fresh broth (1 mL for tubes or 200 μL for microplates) and incubated for 24 h.
(§3) Crystal Violet Assay. Biofilm biomass was visualized and quantitated by means of a crystal violet binding assay as previously described (Kaplan et al., Antimicrob. Agents Chemother. 2004, 48: 2633-2636). Briefly, biofilms were rinsed with water to remove loosely attached cells, stained for 1 min with Gram's crystal violet (200 μL for microplates and 1 mL for tubes), rinsed, dried, and photographed. For quantitation of biofilms grown in microplates, biofilms were de-stained with 200 μL of 33% acetic acid for 5 min, and the absorbance of the crystal violet solution was measured directly in the plate by means of a BioRad Benchmark microtiter plate-reader set at 590 nm. Crystal violet binds to bacterial biofilms, but not to polystyrene (O'Toole & Kolter, Mol. Microbiol. 1998, 28: 449-461).
(§4) Biofilm Detachment Assay. Biofilms were rinsed with water and treated with 200 μL (for microplates) or 1 mL (for tubes) of DispersinB™ (20 μg/mL in PBS) or SDS (0.001-1% in PBS). After a five- or 30-minute incubation at 37° C., biofilms were rinsed with water and stained with crystal violet as described above. In some assays, biofilms were first treated with DispersinB™ for 5 or 30 min, rinsed, and then treated with SDS. All detachment assays were performed in duplicate wells or tubes. All assays were performed on at least 3 separate occasions, with similar results.

[5] = test system: A. actinomycetemcomitans strain HW1018 (PGA mutant) biofilms; test: Biofilm detachment assay (crystal violet); format: cell-based; conditions: 0.1% SDS in PBS, 5 min; tubes and microplate wells
Description: as §1, §2, §3, §4

[6] = test system: A. actinomycetemcomitans CU1000 biofilms; test: Biofilm killing assay; format: cell-based; conditions: for decrease in the number of CFU: then 0.01% SDS 5 min
Procedure: Biofilm Killing Assay. […] Tubes were vortexed for 10 s, and 20 μL aliquots of the detached biofilms were transferred to the wells of a flat-bottomed 96-well microtiter plate containing 180 μL of fresh broth. Five serial dilutions (20 μL into 180 μL) were performed directly into adjacent wells. Plates were incubated for 48 h and then rinsed and stained with crystal violet as described above. Wells containing 30-300 biofilm colonies were photographed under a dissecting microscope and counted. In some assays, biofilms were pre-treated with 1 mL of DispersinB™ (20 μg/mL in PBS) for 5 min prior to the SDS treatment. In these assays, a 100 μL quantity of SDS in PBS (at 10 times the test concentration) was added directly to the DispersinB™-treated cell suspension and mixed. After 5 min, tubes were vortexed briefly, and 20-μL aliquots of culture were enumerated as described above. Killing assays were performed in duplicate tubes on at least 5 separate occasions, with similar results.

[7] = test system: A. actinomycetemcomitans planktonic cells; conditions: SDS; Drake et al. 1992, Wade & Addy 1992; cited from earlier work
[8] = test system: biofilm-embedded S. epidermidis; test: In vitro biofilm-dispersal assay in microcentrifuge tubes (sensitivity of biofilm-embedded cells, CFU plating); format: cell-based, Staphylococcus epidermidis; conditions: 3 h, 37° C.
[9] = test system: E. coli csrA luxCDABE kan^r biofilm; test: Bioluminescent E. coli biofilm on filter disc, luminescence; format: cell-based; conditions: Table 4, repeated experiment
Description: E. coli TRMG1655 [csrA::kan^r] strain was transformed with transposon, mini-TN5 luxCDABE::kan^r for luciferase expression (Kadurugamuwa et al., 2005, Infect. Immun. 73: 3878-3887), and the operon integrated into the chromosome. Integration was confirmed by amplification of the genomic DNA upstream of the transposon by inverse PCR using Ssp1-digested genomic DNA. Primers UTCF1 (5′-[…]-3′; SEQ ID NO:13) and UTCR (5′-[…]-3′; SEQ ID NO:14) were used to amplify the upstream region using Pfu DNA polymerase (Sigma-Oligosynthesis, St. Louis, Mo.). The lux operon is derived from Photorhabdus luminescence and was obtained from Xenogen Inc. (Alameda, Calif.). These bioluminescent bacteria allow real-time monitoring by noninvasive imaging of biofilms, either in vitro or in vivo.
A cell suspension of 10^6 E. coli csrA luxCDABE kan^r was used to inoculate a filter disc (Millipore Corporation, Billerica, Mass.). The E. coli biofilm was maintained in minimal media (M9) supplemented with 50 μg/ml kanamycin and 100 μg/ml ampicillin. The media were changed every day by transferring the disc to new plate. After 3 days, chemoluminescence activity of the established biofilm was measured using a Typhoon™ imaging scanner (General Electric Healthcare Life Sciences) and ImageQuant TL software (Amersham Biosciences, Sunnyvale, Calif.). The measure luminescence directly correlates with the metabolic activity of the biofilm.
Luminescence was measured at day 0 and was used as the control. Following the measurement of luminescence at day 0, each disc was treated with one of the following—media alone (control) and media containing:
Luminescence was measured every 24 hours followed by replacing the media. Thus, every 24 h following the measurement of the luminescence, 10 μl each of the different solutions was applied to the plate and the biofilm disc was placed on top of the drop everyday. The quantitative analysis of the biofilm luminescence from each day was used to compare the biofilm activity after treatment with the different treatments.
The experiments were repeated using the same E. coli strain csrA luxCDABE kan^r and protocols. Biofilm discs were pulsed with media alone (control) and media containing: […]

[10] = BisEDT 50 μg/ml, DispersinB 50 μg/ml, phage cocktail 10^8

[H]/N=C(\N/C(=N/[H])NCCCCCCNC(=N)NC(=N)Nc1ccc(Cl)cc1)Nc1ccc(Cl)cc1 [CHX, chlorhexidine]
killing of S. epidermidis biofilm ([1]; CHX alone, 0.2 μg/ml, 5 min, PBS pretreatment): did not significantly kill | decrease of CFU ([1]; tubes pretreated with DispersinB 20 μg/ml 30 min, then CHX 0.2 μg/ml 5 min): 1.6 log

O=C(O[C@@H]1Cc2c(O)cc(O)cc2O[C@@H]1c1cc(O)c(O)c(O)c1)c1cc(O)c(O)c(O)c1 [EGCG, Epigallocatechin gallate]
inhibiting the growth of biofilm embedded S. epidermidis, compound alone ([2]; EGCG 100 ng/ml alone versus DispersinB alone): more effective than DispersinB™ | inhibiting the growth of biofilm embedded S. aureus, compound alone [3]: more effective than DispersinB™

O=C1C=CC(=O)N1c1ccc2ccc3cccc4ccc1c2c34 [PyrM, N-(1-pyrenyl)maleimide]
inhibiting the growth of biofilm-embedded S. epidermidis, compound alone ([2]; 8 μg/ml PyrM alone versus 1 μg/ml DispersinB alone): more effective than DispersinB

CCCCCCCCCCCCOS(=O)(=O)[O-].[Na+] [SDS, sodium dodecyl sulfate]
killing of biofilm-embedded S. epidermidis ([1]; SDS alone, 0.2 mg/ml, 5 min, PBS pretreatment): did not significantly kill | decrease in the number of CFUs ([1]; tubes pretreated with DispersinB 20 μg/ml 30 min, then SDS 0.2 mg/ml 5 min): 1.5 log unit | detachment of wild-type biofilms by SDS ([4]; 0.001-1% SDS, 5 min, microplate wells, mock pretreatment): resistant to detachment at all concentrations of SDS | attachment of wild-type biofilms ([4]; 0.1% SDS in PBS, 5 min, tubes and microplate wells): no effect | SDS concentrations at which biofilms were resistant to detachment ([4]; wild-type biofilms pre-treated with DispersinB 20 μg/mL 30 min, then SDS 5 min, microplate wells): < 0.04% | SDS concentration of transition from SDS-resistant to SDS-sensitive ([4]; wild-type biofilms pre-treated with DispersinB, same transition expressed in mM): 1.4 to 2.4 mM | detachment of PGA mutant biofilms [5]: rapid detachment | killing of A. actinomycetemcomitans biofilms ([6]; SDS alone, 0.01%, 5 min, mock pre-treatment): did not significantly kill | decrease in the number of CFU ([6]; tubes pre-treated with DispersinB 20 μg/mL for 5 min): 2 log-unit | decrease in the number of CFU ([6]; tubes pre-treated with DispersinB 20 μg/mL for 30 min): 4 log-unit | MIC against planktonic cells [7]: 0.01%

O=C1C=CC(=O)N1c1ccccc1N1C(=O)C=CC1=O [oPDM, N,N-(1,2 phenylene)dimaleimide]
inhibiting the growth of biofilm-embedded S. epidermidis, compound alone ([2]; 625 μg/ml oPDM alone versus 1 μg/ml DispersinB alone): more effective than DispersinB

OC[C@@H](O)[C@H](O)[C@@H](O)CO [xylitol]
inhibitory effect on biofilm-embedded S. epidermidis ([8]; 5% xylitol in combination with DispersinB 20 μg/ml): slightly enhanced the inhibitory effect

benzalkonium chloride [BKC]
killing of biofilm-embedded S. epidermidis ([1]; BKC alone, 0.4 μg/ml, 60 min, PBS pretreatment): did not significantly kill | decrease in CFU ([1]; tubes pretreated with DispersinB 20 μg/ml 30 min, then BKC 0.4 μg/ml 60 min): 2.2 log

bismuth ethanedithiol [BisEDT]
luminescence, Day 1 [9, 10]: 245.27 RLU | luminescence, Day 2 [9, 10]: 83.51 RLU | luminescence, Day 3 [9, 10]: 8.02 RLU | luminescence, Day 4 [9, 10]: 47.62 RLU | luminescence, Day 0 ([9]; Day 0, before treatment (baseline)): 1815.26 RLU

glucose oxidase
inhibitory effect on biofilm-embedded S. epidermidis ([8]; glucose oxidase 10 U/m in combination with DispersinB 20 μg/ml): enhanced the inhibitory effect
